In the experiment the test system is pituitary cells. As to the kind of experiment: Pituitary Cell Culture Assay for Growth Hormone (GH) Secretion. Particulars: stimulation of GH secretion, cultured rat anterior pituitary cells, 45 min at room temperature, rat GH radioimmunoassay. The format is cell-based. From the text: Growth hormone secretagogue activity can be determined using a typical assay which may employ pituitary cells established in culture, followed by a challenge with the various compounds of formula I, and the levels of growth hormone determined accordingly. Growth hormone levels may be calculated using various radioimmunoassay techniques known to those of skill in the art. One example of such an assay is detailed herein.
Pituitary Cell Culture Assay for Growth Hormone (GH) Secretion
Fifteen 250 g male Sprague-Dawley rats are used for each assay. The animals are killed by decapitation and anterior pituitaries are removed and placed into ice cold culture medium. The pituitaries are sectioned in small pieces and enzymatically digested using trypsin (Difco) to weaken connective tissue. Pituitary cells are dispersed by mechanical agitation, collected, pooled and then seeded into 96-well plates (50,000 cells/well). After 5 days of culture, the cells formed as monolayer (70-80% confluent). Cells are then washed with medium (without phenol red) and incubated for 90 min at 37° C. Afterwards the cells are challenged to secrete GH by the addition of GH secretagogues to the medium. After 45 min at room temperature, the medium is removed, filtered and stored frozen until radioimmunoassays for rat GH were performed. Doses of secretagogue are added in triplicates. Compounds disclosed herein are active in the assay as described. The compounds cause a stimulation of GH secretion resulting in at least 20% increase of the basal level of GH with and EC50<500 nM. […] Both EC50 and efficacy values were calculated by the 4-parameter logistic equation. Such values were pooled and represented as mean+/−standard error, when appropriate.

Molecules are shown by their SMILES. pEC50: −log10 of the molar value. Counter-ions that a name gives are not always drawn.

For the compound `CCN(CC1=C(c2ccc(Cl)cc2)S(=O)(=O)NC1(C)C)C(=O)[C@@H](COCc1cc(F)ccc1F)NC(=O)C(C)(C)N` [Example 15, 2-(R)-2-(2-Amino-2-methylpropionylamino)-3-(2,5-difluorophenyl)methoxy propionic acid N-[5-(4-chlorophenyl)-3,3-dimethyl-1,1-dioxo-2,3-dihydroisothiazol-4-ylmethyl]-N-ethylamide Hydrochloride], the pEC50 is 8.68.

Where the note is “0.75 h”, `CCN(CC1=C(c2ccc(S(C)(=O)=O)cc2)S(=O)(=O)NC12CCCCC2)C(=O)[C@@H](COCc1cc(F)ccc1F)NC(=O)C(C)(C)N` [Example 2, 2-(R)-2-(2-Amino-2-methylpropionylamino)-3-(2,5-difluorophenyl)methoxypropionic acid N-ethyl-N-(3-(4-methanesulfonyl-phenyl)-2,2-dioxo-2-thia-1-azaspiro[4.5]dec-3-ene-4-ylmethyl)amide Hydrochloride] gave a pEC50 of 9.64.

`CCN(CC1=C(c2ccc(S(C)(=O)=O)cc2)S(=O)(=O)NC12CCCCC2)C(=O)[C@@H](COCc1cc(F)cc(F)c1)NC(=O)C(C)(C)N` [Example 5, 2-(R)-2-(2-Amino-2-methylpropionylamino)-3-(3,5-difluorophenyl)methoxypropionic acid N-ethyl-N-(3-(4-methanesulfonyl-phenyl)-2,2-dioxo-2-thia-1-azaspiro[4.5]dec-3-ene-4-ylmethyl)amide Hydrochloride] gave a pEC50 (0.75 h) of 9.22. This pEC50 is 0.42 log units lower than that of the compound before.

In the case of `CN(CC1=C(c2ccc(Cl)cc2)S(=O)(=O)NC1(C)C)C(=O)[C@@H](COCc1ccc(F)cc1)NC(=O)C(C)(C)N` [Example 7, 2-(R)-2-(2-Amino-2-methylpropionylamino)-3-(4-fluorophenyl)methoxy propionic acid N-[5-(4-chlorophenyl)-3,3-dimethyl-1,1-dioxo-2,3-dihydroisothiazol-4-ylmethyl]-N-methylamide Hydrochloride], the pEC50 (0.75 h) is 8.77.

The compound `CCN(CC1=C(c2ccc(Cl)cc2)S(=O)(=O)NC1(C)C)C(=O)[C@@H](COCc1c(F)cccc1F)NC(=O)C(C)(C)N` [Example 16, 2-(R)-2-(2-Amino-2-methylpropionylamino)-3-(2,6-difluorophenyl)methoxy propionic acid N-[5-(4-chlorophenyl)-3,3-dimethyl-1,1-dioxo-2,3-dihydroisothiazol-4-ylmethyl]-N-ethylamide Hydrochloride] gave a pEC50 of 8.96.

`CCN(CC1=C(c2ccc(Cl)cc2)S(=O)(=O)NC1(C)C)C(=O)[C@@H](COCc1ccc(F)cc1F)NC(=O)C(C)(C)N` [Example 12, 2-(R)-2-(2-Amino-2-methylpropionylamino)-3-(2,4-difluorophenyl)methoxy propionic acid N-[5-(4-chlorophenyl)-3,3-dimethyl-1,1-dioxo-2,3-dihydroisothiazol-4-ylmethyl]-N-ethylamide Hydrochloride]: the pEC50 was 8.10.

For `CCN(CC1=C(c2ccc(S(C)(=O)=O)cc2)S(=O)(=O)NC12CCCCC2)C(=O)[C@@H](COCc1ccc(F)c(F)c1)NC(=O)C(C)(C)N` [Example 4, 2-(R)-2-(2-Amino-2-methylpropionylamino)-3-(3,4-difluorophenyl)methoxypropionic acid N-ethyl-N-(3-(4-methanesulfonyl-phenyl)-2,2-dioxo-2-thia-1-azaspiro[4.5]dec-3-ene-4-ylmethyl)amide Hydrochloride], the pEC50 (0.75 h) is 9.05.

The record behind these values is US7396846B2, “Growth hormone secretagogues” (Eli Lilly and Company, priority 2002, dated 2008).
